Laboratory results taken from patent US20260098046A1, “RIFABUTIN ANALOGS FOR THE TREATMENT OF DISEASE” (BIOVERSYS AG, priority 2022, published 2026).
In brackets after ≈: the same amount, converted by molar mass. Like-named read-outs stand apart in the source and are kept apart here.

What was measured:
Assay type in all cases: cell-based
[1] = tested on: S. aureus (UAMS-1625 strain); assay: MIC by broth microdilution (CLSI) against S. aureus; conditions: Staphylococcus aureus, 20 h, read-out: In vitro activity (MIC) S. aureus
Procedure: (§1) MIC values were determined by broth microdilution method according to the CLSI guideline. Unless otherwise mentioned, MIC against A. baumannii was performed in RPMI medium supplemented with 10% FCS. MIC against M. abscessus was performed in Middlebrook 7H9 broth supplemented with Middlebrook ADC growth supplement (10%). All other MIC were performed in standard cation adjusted Mueller Hinton broth, supplemented with Middlebrook ADC growth supplement (5%) for the slow growing mycobacteria (M. xenopi, M. kansasii and M. avium).
(§2) The following procedure applies to all species tested, except for M. xenopi. From a fresh culture plate (from overnight to several days depending on the bacteria), cells were resuspended in 0.9% (w/v) saline solution and bacterial inoculum was prepared in the respective testing medium with 5×10^5 CFU/mL. For M. xenopi, the inoculum was prepared from a fresh liquid culture (7H9+ADC). The appropriate volumes of a 10 mg/mL compound solution were directly dispensed in the 96-well assay plate using a digital dispenser to create two-fold dilution series from 32 to 0.002 μg/mL final concentration for A. baumannii and S. aureus; from 16 to 0.016 μg/mL for M. abscessus and M. avium; and from 1 to 6×10^−5 μg/mL for M. kansasii and M. xenopi. 100 μL of bacterial suspension was finally added to the compounds. Plates were covered and incubated without shaking at 35° C. for 20 hours for A. baumanii and S. aureus; at 30° C. for 4 days for M. abscessus; and at 37° C. for 7 days (at least) for M. kansasii (covered with aluminum foil to avoid light exposure), M. avium and M. xenopi. Every experiment contained an antibiotic as quality control. MIC was determined visually as the lowest concentration of a compound that prevents visible growth of the bacteria.
(§3) The in vitro activity of compounds described herein was determined against S. aureus (UAMS-1625 strain), A. baumannii (HUMC1 strain), M. abscessus (ATCC 19977), M. kansasii (ATCC12478), M. avium (ATCC25291), and M. xenopi (ATCC19250).

[2] = tested on: M. abscessus (ATCC 19977); assay: MIC by broth microdilution (CLSI) against M. abscessus; conditions: Mycobacteroides abscessus
Procedure: as §1, §2, §3

M. avium (ATCC25291) = assay: MIC by broth microdilution (CLSI) against M. avium; conditions: Mycobacterium avium, 168 h, cation adjusted Mueller Hinton broth + ADC (5%), 37° C. for 7 days (at least), read-out: In vitro activity (MIC) M. avium
Procedure: as §1, §2, §3

[3] = tested on: A. baumannii (HUMC1 strain); assay: MIC by broth microdilution (CLSI) against A. baumannii; conditions: Acinetobacter baumannii, RPMI medium supplemented with 10% FCS, 35° C. for 20 hours, read-out: In vitro activity (MIC) A. baumannii
Procedure: as §1, §2, §3

M. xenopi (ATCC19250) = assay: MIC by broth microdilution (CLSI) against M. xenopi; conditions: Mycobacterium xenopi, 168 h, cation adjusted Mueller Hinton broth + ADC (5%), 37° C. for 7 days (at least), read-out: In vitro activity (MIC) M. xenopi
Procedure: as §1, §2, §3

M. kansasii (ATCC12478) = assay: MIC by broth microdilution (CLSI) against M. kansasii; conditions: Mycobacterium kansasii, 168 h, cation adjusted Mueller Hinton broth + ADC (5%), 37° C. for 7 days (at least), read-out: In vitro activity (MIC) M. kansasii
Procedure: as §1, §2, §3

[4] = ATCC19977, 96 h, ATCC 19977, Middlebrook 7H9 broth + ADC (10%), 30° C. for 4 days, read-out: In vitro activity (MIC) M. abscessus

**Q.** Which results are given for `CO[C@H]1/C=C/O[C@@]2(C)Oc3c(C)c(O)c4c(c3C2=O)C2=NC3(CCN(CC(C)C)CC3)NC2=C(NC(=O)/C(C)=C\C=C\[C@H](C)[C@H](O)[C@@H](C)[C@@H](O)[C@@H](C)[C@H](OC(C)=O)[C@@H]1C)C4=O` [Rifabutin, rifabutin]?
**A.** MIC [1]: 0.016 µg/mL (≈ 0.0189 µM); MIC [2, 4]: 8 µg/mL; MIC ([2]; ATCC19977, tested M. abscessus strains, read-out: MIC value on M. abscessus): 8 µg/mL (≈ 9.44 µM); MIC (M. avium (ATCC25291)): 0.125 µg/mL; MIC [3]: ≤ 0.002 µg/mL; MIC (M. xenopi (ATCC19250)): 0.03 µg/mL; MIC (M. kansasii (ATCC12478)): 0.001 µg/mL

**Q.** `CO[C@H]1/C=C/O[C@@]2(C)Oc3c(C)c(O)c4c(c3C2=O)C2=NC3(CCN(CC(C)C)CC3)NC2=C(NC(=O)/C(C)=C\C=C\[C@H](C)[C@H](O)[C@@H](C)[C@@H](O)[C@@H](C)[C@H](OC(=O)Cn2cc(-c3ccccc3)nn2)[C@@H]1C)C4=O` [Compound 1] was tested. Which MIC [1] did it give?
**A.** 0.125 µg/mL (≈ 0.126 µM)

**Q.** And the MIC [2, 4]?
**A.** 0.25 µg/mL

**Q.** What about the MIC (M. avium (ATCC25291)) of the same molecule?
**A.** 0.03 µg/mL

**Q.** What about the MIC [3] of the same molecule?
**A.** 0.004 µg/mL (≈ 0.00404 µM)

**Q.** What about the MIC (M. xenopi (ATCC19250)) of the same molecule?
**A.** 0.016 µg/mL

**Q.** And the MIC (M. kansasii (ATCC12478))?
**A.** 0.002 µg/mL

**Q.** What does the source list for `CO[C@H]1/C=C/O[C@@]2(C)Oc3c(C)c(O)c4c(c3C2=O)C2=NC3(CCN(CC(C)C)CC3)NC2=C(NC(=O)/C(C)=C\C=C\[C@H](C)[C@H](O)[C@@H](C)[C@@H](O)[C@@H](C)[C@H](OC(=O)Cn2cc(-c3ccc(N)cc3)nn2)[C@@H]1C)C4=O` [Compound 3]?
**A.** MIC [1]: 0.03 µg/mL (≈ 0.0298 µM); MIC [2, 4]: 1 µg/mL; MIC [3]: ≤ 0.002 µg/mL

**Q.** Which results are given for `CO[C@H]1/C=C/O[C@@]2(C)Oc3c(C)c(O)c4c(c3C2=O)C2=NC3(CCN(CC(C)C)CC3)NC2=C(NC(=O)/C(C)=C\C=C\[C@H](C)[C@H](O)[C@@H](C)[C@@H](O)[C@@H](C)[C@H](OC(=O)Cn2cc(-c3ccc([N+](=O)[O-])cc3)nn2)[C@@H]1C)C4=O` [Compound 4]?
**A.** MIC [1]: 0.5 µg/mL (≈ 0.483 µM); MIC [2, 4]: 0.125 µg/mL; MIC (M. avium (ATCC25291)): 0.03 µg/mL; MIC [3]: 0.125 µg/mL (≈ 0.121 µM); MIC (M. xenopi (ATCC19250)): 0.03 µg/mL; MIC (M. kansasii (ATCC12478)): 0.002 µg/mL

**Q.** Which MIC [1] does the source give for `CO[C@H]1/C=C/O[C@@]2(C)Oc3c(C)c(O)c4c(c3C2=O)C2=NC3(CCN(CC(C)C)CC3)NC2=C(NC(=O)/C(C)=C\C=C\[C@H](C)[C@H](O)[C@@H](C)[C@@H](O)[C@@H](C)[C@H](OC(=O)Cn2cc(C(C)(C)N)nn2)[C@@H]1C)C4=O` [Compound 13] here?
**A.** 0.125 µg/mL (≈ 0.129 µM)

**Q.** And the MIC [2, 4]?
**A.** 1 µg/mL

**Q.** What about the MIC [3] of the same molecule?
**A.** ≤ 0.002 µg/mL

**Q.** How did the MIC [1] turn out when `CO[C@H]1/C=C/O[C@@]2(C)Oc3c(C)c(O)c4c(c3C2=O)C2=NC3(CCN(CC(C)C)CC3)NC2=C(NC(=O)/C(C)=C\C=C\[C@H](C)[C@H](O)[C@@H](C)[C@@H](O)[C@@H](C)[C@H](OC(=O)Cn2cc(-c3cccs3)nn2)[C@@H]1C)C4=O` [Compound 11] was run?
**A.** 0.03 µg/mL (≈ 0.0301 µM)

**Q.** And the MIC [2, 4]?
**A.** 1 µg/mL

**Q.** And the MIC [3]?
**A.** 0.008 µg/mL (≈ 0.00803 µM)

**Q.** `CCCc1cn(CC(=O)O[C@H]2[C@H](C)[C@H](O)[C@H](C)[C@@H](O)[C@@H](C)/C=C/C=C(/C)C(=O)NC3=C4NC5(CCN(CC(C)C)CC5)N=C4c4c(c(O)c(C)c5c4C(=O)[C@@](C)(O/C=C/[C@H](OC)[C@H]2C)O5)C3=O)nn1` [Compound 24] was tested. Which MIC [1] did it give?
**A.** 0.03 µg/mL (≈ 0.0314 µM)

**Q.** What about the MIC [2, 4] of the same molecule?
**A.** 1 µg/mL

**Q.** What about the MIC [3] of the same molecule?
**A.** 0.004 µg/mL (≈ 0.00418 µM)

**Q.** With `CO[C@H]1/C=C/O[C@@]2(C)Oc3c(C)c(O)c4c(c3C2=O)C2=NC3(CCN(CC(C)C)CC3)NC2=C(NC(=O)/C(C)=C\C=C\[C@H](C)[C@H](O)[C@@H](C)[C@@H](O)[C@@H](C)[C@H](OC(=O)Cn2cc(C(C)(C)C)nn2)[C@@H]1C)C4=O` [Compound 27] as the molecule, how does the MIC [1] read?
**A.** 0.06 µg/mL (≈ 0.0618 µM)

**Q.** What about the MIC [2, 4] of the same molecule?
**A.** 2 µg/mL

**Q.** And the MIC [3]?
**A.** 0.004 µg/mL (≈ 0.00412 µM)

**Q.** Which MIC [1] does the source give for `CO[C@H]1/C=C/O[C@@]2(C)Oc3c(C)c(O)c4c(c3C2=O)C2=NC3(CCN(CC(C)C)CC3)NC2=C(NC(=O)/C(C)=C\C=C\[C@H](C)[C@H](O)[C@@H](C)[C@@H](O)[C@@H](C)[C@H](OC(=O)Cn2cc(CC3CCCCC3)nn2)[C@@H]1C)C4=O` [Compound 28] here?
**A.** 0.5 µg/mL (≈ 0.495 µM)

**Q.** And the MIC [2, 4]?
**A.** 0.5 µg/mL

**Q.** What about the MIC [3] of the same molecule?
**A.** 0.03 µg/mL (≈ 0.0297 µM)

**Q.** Which MIC [1] does the source give for `CO[C@H]1/C=C/O[C@@]2(C)Oc3c(C)c(O)c4c(c3C2=O)C2=NC3(CCN(CC(C)C)CC3)NC2=C(NC(=O)/C(C)=C\C=C\[C@H](C)[C@H](O)[C@@H](C)[C@@H](O)[C@@H](C)[C@H](OC(=O)Cn2cc(CNS(=O)(=O)c3ccccc3)nn2)[C@@H]1C)C4=O` [Compound 16] here?
**A.** 0.125 µg/mL (≈ 0.115 µM)

**Q.** What about the MIC [2, 4] of the same molecule?
**A.** 0.5 µg/mL

**Q.** What about the MIC [3] of the same molecule?
**A.** 0.008 µg/mL (≈ 0.00739 µM)
